Source: article PMC9966370, “Biological Evaluation and In Vitro Characterization of ADME Profile of In-House Pyrazolo[3,4-d]pyrimidines as Dual Tyrosine Kinase Inhibitors Active against Glioblastoma Multiforme” (Pharmaceutics, 2023)
Read-outs that look alike come from different tables or passages of the source. Marks after values point to notes of the source that are not given here.

Assays:
[1] = tested on: fibroblasts FIBRO 2-93; assay: cytotoxicity on nontumoral healthy cells, MTT assay, FIBRO 2-93; type: cell-based, human
Procedure: (§4) The protocol used to assess the cytotoxic effect on both healthy cell lines was the same described above for the antiproliferative assay. For both the antiproliferative and the cytotoxic assays, 3-(4,5-dimethylthiazol-2-yl)-2,5-diphenyltetrazolium bromide (MTT) was used to assess cell viability as previously described [20]. […] Afterward, formazan violet crystals were solubilized in 150 μL of isopropanol, and the absorbance was quantified at 570 nm using a Multiskan SkyHigh Microplate Spectrophotometer (ThermoFisher, Waltham, MA, USA). Cell viability was expressed as a percentage of DMSO-treated cells (controls), taken as 100%.

[2] = as above; type: cell-based, human; conditions: human, FIBRO 2-93 healthy fibroblasts, 72 h treatment, MTT
Procedure: as §4

[3] = tested on: DBTRG GBM cell line; assay: antiproliferative activity, MTT assay, DBTRG; type: cell-based; conditions: Homo sapiens, 72 h treatment
Procedure: (§1) Cell-based assays were performed using four GBM cell lines, i.e., U-87, LN18, LN229, and DBTRG, cultured in Dulbecco’s modified Eagle medium (DMEM) (U-87, LN18, and LN229) or Roswell Park Memorial Institute medium (RPMI 1640) (DBTRG). Both media were implemented with 10% fetal bovine serum (FBS), 2 mM L-glutamine, and 10,000 units/mL penicillin/streptomycin at 37 °C in a 5% CO2 atmosphere. […] The final concentration of DMSO used never exceeded 0.5% v/v, and appropriate controls were always performed in each assay. […] These were cultured in DMEM supplemented with 10% FBS, 2 mM L-glutamine, and 10,000 units/mL penicillin/streptomycin at 37 °C in a 5% CO2 atmosphere. The protocol used to assess the cytotoxic effect on both healthy cell lines was the same described above for the antiproliferative assay. For both the antiproliferative and the cytotoxic assays, 3-(4,5-dimethylthiazol-2-yl)-2,5-diphenyltetrazolium bromide (MTT) was used to assess cell viability as previously described. Briefly, 150 μL of MTT (5 mg/mL in FBS-free culture medium) was added to each well, and the plates incubated for 4 h in a 5% CO2 atmosphere at 37 °C. Afterward, formazan violet crystals were solubilized in 150 μL of isopropanol, and the absorbance was quantified at 570 nm using a Multiskan SkyHigh Microplate Spectrophotometer (ThermoFisher, Waltham, MA, USA). Cell viability was expressed as a percentage of DMSO-treated cells (controls), taken as 100%. […] To support MTT data, cytotoxicity assays was always paralleled by a careful observation of cells under a phase-contrast light microscope, as described in USP 28 (United States Pharmacopeia edition 2005) as an alternative method. This analysis was performed by an expert operator blind to the treatment, and exemplificative photos representing the effects of compound 5 on LN229 and DBTRG cells are reported in Figures S2 and S3 (Supplementary Materials).

[4] = tested on: LN229 GBM cell line; assay: antiproliferative activity, MTT assay, LN229; type: cell-based; conditions: Homo sapiens, LN-229, 72 h treatment
Procedure: as §1

[5] = tested on: keratinocytes HaCaT; assay: cytotoxicity on nontumoral healthy cells, MTT assay, HaCaT; type: cell-based, human; conditions: 72 h treatment
Procedure: as §4

[6] = as above; type: cell-based, human; conditions: human, HaCaT keratinocytes, 72 h treatment
Procedure: as §4

[7] = tested on: U-87 GBM cell line; conditions: previously published; cited from earlier work
[8] = HLM, previously published, cited from earlier work; for Metabolite Formation M1: M1 = M − HCl + O
[9] = tested on: LN18 GBM cell line; assay: antiproliferative activity, MTT assay, LN18; type: cell-based; conditions: Homo sapiens, LN-18, 72 h treatment
Procedure: as §1

[10] = tested on: U-87 GBM cell line; assay: antiproliferative activity, MTT assay, U-87; type: cell-based; conditions: Homo sapiens, 72 h treatment
Procedure: as §1

[11] = PAMPA, GI permeability; type: in vitro ADME; conditions: RT; for GI membrane retention (MR%): 5 h, pH 7.4; for Papp at 5 h, 500 µM: pH 7.4, PAMPA
Procedure: (§2) UV/LC–MS chromatographic analyses were carried out using an Agilent 1100 LC/MSD VL system (G1946C) purchased from Agilent Technologies (Palo Alto, CA, USA). […] The analysis began with 5% B (t = 0–1 min), increased to 95% (t = 1–10 min), maintained at 95% (t = 10–19 min), and finally returned to 5% […]. The analyses were performed at a flow rate of 0.6 mL/min, UV detection was monitored at 254 nm, and spectra were acquired over the scan range of m/z 100–1000 in both positive and negative modes.
(§3) The DMSO stock of each compound was diluted with phosphate buffer (PBS 25 mM, pH 7.4) to a final concentration of 500 µM in order to obtain the “donor”. For GI and BBB permeability, filters were coated with 10 µL of 1% w/v dodecane phosphatidylcholine solution or 5 µL of 10% w/v CHCl3/dodecane brain polar lipid solution. The donor (150 µL) was poured over the artificial membranes on the filter plate. DMSO/PBS (300 µL, 1:1 v/v) was then added to the acceptor wells. After assembling the sandwich plates, the experiments were run for 5 h at room temperature (RT). Lastly, the amount of compound passed though the artificial membranes was determined using the UV/LC–MS method described above. Apparent permeability (Papp) and membrane retention (MR%) were determined as previously described.

[12] = PAMPA, BBB permeability; type: in vitro ADME; conditions: RT; for BBB membrane retention (MR%): 5 h, pH 7.4; for Papp at 5 h, 500 µM: pH 7.4, PAMPA
Procedure: as §2, §3

[13] = set-up: method as in PMID 21443205; conditions: previously published; cited from earlier work
[14] = biological target: T1, c-Src (Homo sapiens, UniProt P12931); assay: cell-free enzymatic assay (ADP-Glo), c-Src; type: biochemical
T1 construct: purchased Promega (Madison, WI, USA)
T1 sequence (P12931 whole entry): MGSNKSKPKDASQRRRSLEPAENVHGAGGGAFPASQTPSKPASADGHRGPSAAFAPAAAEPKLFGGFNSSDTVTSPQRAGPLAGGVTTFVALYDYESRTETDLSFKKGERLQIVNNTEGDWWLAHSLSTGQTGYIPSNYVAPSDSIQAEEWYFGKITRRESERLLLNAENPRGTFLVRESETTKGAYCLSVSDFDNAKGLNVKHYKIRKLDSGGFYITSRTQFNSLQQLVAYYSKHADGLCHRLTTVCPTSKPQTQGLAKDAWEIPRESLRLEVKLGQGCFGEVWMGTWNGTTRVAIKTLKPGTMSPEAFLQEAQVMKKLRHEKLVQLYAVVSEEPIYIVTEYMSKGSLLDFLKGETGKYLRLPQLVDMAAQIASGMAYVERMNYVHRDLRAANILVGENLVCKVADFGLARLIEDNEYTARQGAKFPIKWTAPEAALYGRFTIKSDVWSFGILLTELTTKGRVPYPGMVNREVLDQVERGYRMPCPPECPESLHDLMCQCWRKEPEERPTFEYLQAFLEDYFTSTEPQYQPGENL
Procedure: (§5) The reactions were carried out in accordance with the manufacturer’s instructions, with minor modifications. The experiments were run using all substrates at least twice the concentration of apparent Km. […] All reactions were run out at 30 °C for 10 min with 10–50 ng of enzyme and 10 µL of 10% DMSO. Protein low-binding tubes were used to prevent peptide adsorption onto the plastic surface. To detect kinase activity, the ADP-Glo Kinase Assay (Promega, Madison, WI, USA) was used according to the manufacturer’s protocol. Into white 384-well plates, reactions were stopped for 50 min at RT by adding 10 µL of ADP-Glo Reagent (Promega, Madison, WI, USA). After 30 min, 20 µL of Detection Reagent (Promega, Madison, WI, USA) was added, and the reaction was read using a GloMax Discover microplate reader (Promega, Madison, WI, USA). […] Compounds analyzed were considered to act as ATP-competitive inhibitors.

[15] = metabolic stability assay in human liver microsomes; type: in vitro ADME; conditions: HLM 0.2 mg/mL, NADPH, 1 h, 37 °C
Procedure: as §2
Each DMSO compound solution was incubated for 1 h at 37 °C in the presence of 500 µL of PBS (25 mM, pH 7.4), human liver microsomal (HLM) proteins (0.2 mg/mL), and 10 mM NADPH solution in MgCl2 (48 mM). The reactions were stopped with 1.0 mL of cold ACN. The samples were centrifuged (4000 rpm for 10 min), and the supernatants were collected, dried under N2 flow, and suspended in 100 µL of methanol (MeOH). Parent drugs and metabolites were determined using the previously described HPLC/UV–MS method. The percentage metabolic stability was calculated by comparing the metabolized and unmetabolized compounds.

[16] = biological target: T2, Abl (Homo sapiens, UniProt P00519); assay: cell-free enzymatic assay (ADP-Glo), Abl; type: biochemical; conditions: 30 µM ATP, 50 µM Abltide
T2 construct: purchased Promega (Madison, WI, USA)
T2 sequence (P00519 whole entry): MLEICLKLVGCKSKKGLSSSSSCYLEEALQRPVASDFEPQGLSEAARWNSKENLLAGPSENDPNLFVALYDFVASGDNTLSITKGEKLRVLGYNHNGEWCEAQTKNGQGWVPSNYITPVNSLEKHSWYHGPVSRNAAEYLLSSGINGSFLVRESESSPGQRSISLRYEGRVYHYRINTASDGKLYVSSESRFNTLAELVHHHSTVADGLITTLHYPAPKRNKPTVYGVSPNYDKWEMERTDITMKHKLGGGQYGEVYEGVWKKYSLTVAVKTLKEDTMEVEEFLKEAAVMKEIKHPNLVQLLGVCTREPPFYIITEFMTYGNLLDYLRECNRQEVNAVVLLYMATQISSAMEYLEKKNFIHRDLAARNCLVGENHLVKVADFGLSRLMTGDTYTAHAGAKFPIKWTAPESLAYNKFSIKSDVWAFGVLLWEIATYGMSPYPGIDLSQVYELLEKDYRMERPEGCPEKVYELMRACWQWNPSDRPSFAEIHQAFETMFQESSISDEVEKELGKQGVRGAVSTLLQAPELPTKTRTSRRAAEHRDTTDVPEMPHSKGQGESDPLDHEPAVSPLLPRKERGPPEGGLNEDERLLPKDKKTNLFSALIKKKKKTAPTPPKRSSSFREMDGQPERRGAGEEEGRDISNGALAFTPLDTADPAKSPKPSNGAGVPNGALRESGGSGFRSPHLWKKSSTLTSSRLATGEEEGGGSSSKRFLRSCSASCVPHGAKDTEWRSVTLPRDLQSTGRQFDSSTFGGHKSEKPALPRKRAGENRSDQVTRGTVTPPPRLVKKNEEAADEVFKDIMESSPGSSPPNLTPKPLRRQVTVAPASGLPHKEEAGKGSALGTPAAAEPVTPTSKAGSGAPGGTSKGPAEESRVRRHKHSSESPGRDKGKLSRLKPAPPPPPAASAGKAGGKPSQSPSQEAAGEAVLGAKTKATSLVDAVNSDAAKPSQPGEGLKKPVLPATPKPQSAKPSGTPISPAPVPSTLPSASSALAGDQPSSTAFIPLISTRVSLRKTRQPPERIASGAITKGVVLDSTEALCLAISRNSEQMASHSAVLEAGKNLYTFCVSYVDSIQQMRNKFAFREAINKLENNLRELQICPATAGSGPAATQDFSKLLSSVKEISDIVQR
Procedure: as §5

Compound | IC50 [3] | IC50 [4] | Metabolite Formation M1 [8] | IC50 [9] | melting point | IC50 [10] | GI membrane retention (MR%) [11] | Papp at 5 h, 500 µM [11] | BBB membrane retention (MR%) [12] | Papp at 5 h, 500 µM [12] | further results
ClC(Cn1ncc2c(NCc3ccccc3)ncnc21)c1ccccc1 (stereo not drawn) [Compound 1] | 4.3 ± 0.8 µM | 3.4 ± 0.8 µM | 14.5% | 3.6 ± 0.5 µM |  |  |  |  |  |  | CC50 ([1]; 72 h treatment, MTT): 86.9 ± 4.2 µM; CC50 times higher than IC50 ([1]; CC50 on FIBRO 2-93 and HaCaT vs IC50 on GBM cells): 10 times; CC50 at 72 h [2]: ~87 µM; CC50 [5]: 88.7 ± 5.7 µM; CC50 at 72 h [6]: ~87 µM; IC50 [7]: 2900 ± 1100 nM; Metabolite Formation M2 ([8]; M2 = M + OH): < 0.1%; Metabolite Formation M3 ([8]; M3 = M—group bearing NH moiety in R2): 2.6%; Metabolite Formation M4 ([8]; M4 = M − Cl + OH (−35 + 17)): 4.5%; Metabolic Stability [8]: lower than 80%
ClC(Cn1ncc2c(NC3CC3)ncnc21)c1ccccc1 (stereo not drawn) [Compound 2] | > 100 µM | > 100 µM |  | 49.4 ± 2.8 µM | 194 to 195 °C | > 100 µM | 34.7% | 6.46 ×10⁻⁶ cm/s | 55.0% | 4.96 ×10⁻⁶ cm/s | 
Fc1cccc(CNc2ncnc3c2cnn3CCc2ccccc2)c1 [Compound 11] | 69.2 ± 3.9 µM | 58.4 ± 3 µM |  | 34.1 ± 2.9 µM | 113 to 114 °C | 56.9 ± 3.3 µM | 6.7% | ≥ 10 ×10⁻⁶ cm/s | 5.2% | ≥ 10 ×10⁻⁶ cm/s | 
ClC(Cn1ncc2c(NCc3ccccc3)nc(SCCN3CCOCC3)nc21)c1ccccc1 (stereo not drawn) [Compound 9] | 59.4 ± 3.7 µM | 58.2 ± 3.4 µM | M1 = 5 * % | 2.9 ± 0.5 µM |  | > 100 µM |  |  | 6.3% | 2.6 ×10⁻⁶ cm/s | QP LogS [13]: −5.6 *
Clc1ccc(C(Cl)Cn2ncc3c(NCCc4ccccc4)ncnc32)cc1 (stereo not drawn) [Compound 10] | 46.5 ± 4.1 µM | 27.9 ± 2.1 µM |  | 6.2 ± 1 µM |  | 33.9 ± 2.9 µM | 17.2% | ≥ 10 ×10⁻⁶ cm/s | 4.8% | ≥ 10 ×10⁻⁶ cm/s | Ki [14]: 220 ± 30 nM; Metabolic Stability [15]: 85.9%; Ki [16]: 310 ± 20 nM
Fc1ccc(CNc2ncnc3c2cnn3CC(Cl)c2ccccc2)cc1 (stereo not drawn) [Compound 4] | 68.5 ± 3.8 µM | > 100 µM |  | 9 ± 1.2 µM | 161 to 162 °C | 29.8 ± 2.5 µM | 7.8% | ≥ 10 ×10⁻⁶ cm/s | 2.1% | ≥ 10 ×10⁻⁶ cm/s | 
